Mass density data for 4 compounds are collected here from the NIST ThermoML archive (doi:10.1016/j.fluid.2018.01.026).

Structures are written as SMILES. Numbers after ± are expanded uncertainties.

For the series the following is noted: 101.33 kPa, Liquid, Vibrating tube method.

With `CCCCOC(C)=O` [butyl ethanoate], the mass density (293.15 K) turned out to be 880.61 ± 1 kg/m3; the mass density (298.15 K) is listed as 875.45 ± 1 kg/m3; the mass density (303.15 K) is listed as 870.27 ± 1 kg/m3; the mass density (308.15 K) was found to be 865.08 ± 1 kg/m3; the mass density (313.15 K) turned out to be 859.86 ± 1 kg/m3.

Consider `CC(=O)CO` [acetol], for which the mass density came to 1080.13 ± 6.3 kg/m3 (293.15 K); 1074.92 ± 6.3 kg/m3 (298.15 K); 1069.67 ± 6.2 kg/m3 (303.15 K); 1064.31 ± 6.1 kg/m3 (308.15 K); 1058.71 ± 6.1 kg/m3 (313.15 K); 1053.13 ± 6 kg/m3 (318.15 K). Also, the mass density came to 1047.55 ± 5.9 kg/m3 (323.15 K), 1042.01 ± 5.9 kg/m3 (328.15 K) and 1036.62 ± 5.8 kg/m3 (333.15 K).

For the compound `CCCOC(C)=O` [propyl ethanoate], the mass density stood at 887.8 ± 1 kg/m3 (293.15 K); 882.19 ± 1 kg/m3 (298.15 K); 876.56 ± 1 kg/m3 (303.15 K); 870.9 ± 1 kg/m3 (308.15 K); 865.21 ± 1 kg/m3 (313.15 K).

As for `CCOC(C)=O` [ethyl acetate], the mass density worked out at 900.48 ± 1 kg/m3 (293.15 K); 894.36 ± 1 kg/m3 (298.15 K); 888.19 ± 1 kg/m3 (303.15 K); 881.98 ± 1 kg/m3 (308.15 K); 875.73 ± 1 kg/m3 (313.15 K).
